# Results published in patent US8163724B2, “Glucocorticosteroids, processes for their preparation, pharmaceutical compositions containing them and their use in therapy” (AstraZeneca AB, priority 2007, dated 2012).
# Biological target: T1, recombinant human GR (Homo sapiens, UniProt P04150)
# T1 construct: purchased Panvera/Invitrogen P2812 (kit P2893)
# T1 sequence (P04150 1-777): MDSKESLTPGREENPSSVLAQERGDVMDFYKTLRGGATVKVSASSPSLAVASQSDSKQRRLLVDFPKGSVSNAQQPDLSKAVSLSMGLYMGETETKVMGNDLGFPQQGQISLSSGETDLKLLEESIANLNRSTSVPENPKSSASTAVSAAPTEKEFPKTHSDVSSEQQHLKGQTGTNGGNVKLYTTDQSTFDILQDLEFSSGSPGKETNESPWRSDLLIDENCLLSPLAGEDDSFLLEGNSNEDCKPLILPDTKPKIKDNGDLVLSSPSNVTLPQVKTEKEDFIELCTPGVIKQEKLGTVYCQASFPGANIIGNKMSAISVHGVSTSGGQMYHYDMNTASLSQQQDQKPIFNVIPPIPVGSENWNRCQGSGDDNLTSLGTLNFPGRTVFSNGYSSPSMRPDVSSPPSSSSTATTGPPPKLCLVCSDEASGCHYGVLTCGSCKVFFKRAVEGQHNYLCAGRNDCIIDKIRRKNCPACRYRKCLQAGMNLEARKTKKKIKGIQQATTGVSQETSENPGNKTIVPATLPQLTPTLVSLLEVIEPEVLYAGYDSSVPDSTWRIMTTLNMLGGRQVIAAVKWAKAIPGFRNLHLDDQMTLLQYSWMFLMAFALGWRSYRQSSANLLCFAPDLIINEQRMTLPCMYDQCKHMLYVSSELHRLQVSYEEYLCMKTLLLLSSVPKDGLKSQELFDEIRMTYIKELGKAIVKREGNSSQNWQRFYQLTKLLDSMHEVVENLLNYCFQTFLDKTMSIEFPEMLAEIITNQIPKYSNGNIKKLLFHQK
# Experiment: Human Glucocorticoid Receptor (GR) Assay (fluorescence polarization, Panvera/Invitrogen kit)
# Type: binding
# Settings: fluorescence polarization; GS Red tracer; 2 hours at room temperature; 100% control 10 μM Dexamethasone; read-out: Inhibition of GR binding, IC50
# In short: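 Fluorescence polarization competition with recombinant GR and GS Red fluorescent ligand plus stabilizing peptide and DTT in potassium phosphate/sodium molybdate/EDTA buffer with DMSO. Incubated 2 hours at room temperature in the dark; 0% control DMSO, 100% control 10 μM dexamethasone.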
row,Compound,IC50
1,"Cn1cccc1C(=O)O[C@]1(C(=O)SCF)CC[C@H]2[C@@H]3CCC4=Cc5c(cnn5-c5ccc(F)cc5)C[C@]4(C)[C@H]3[C@@H](O)C[C@@]21C [Example 177, (1R,3aS,3bS,10aR,10bS,11S,12aS)-1-{[(Fluoromethyl)thio]carbonyl}-7-(4-fluorophenyl)-11-hydroxy-10a,12a-dimethyl-1,2,3,3a,3b,4,5,7,10,10a,10b,11,12,12a-tetradecahydrocyclopenta[5,6]naphtho[1,2-f]indazol-1-yl 1-methyl-1H-pyrrole-2-carboxylate]",7.5 nM
2,"Cn1cccc1C(=O)O[C@]1(C(=O)SCCO)CC[C@H]2[C@@H]3CCC4=Cc5c(cnn5-c5ccc(F)cc5)C[C@]4(C)[C@H]3[C@@H](O)C[C@@]21C [Example 178, (1R,3aS,3bS,10aR,10bS,11S,12aS)-7-(4-Fluorophenyl)-11-hydroxy-1-{[(2-hydroxyethyl)thio]carbonyl}-10a,12a-dimethyl-1,2,3,3a,3b,4,5,7,10a,10b,11,12,12a-tetradecahydrocyclopenta[5,6]naphtho[1,2]-indazol-1-yl 1-methyl-1H-pyrrole-2-carboxylate]",7.6 nM
3,"C[C@]12Cc3cnn(-c4ccnnc4)c3C=C1CC[C@@H]1[C@@H]2[C@@H](O)C[C@@]2(C)[C@H]1CC[C@]2(OC(=O)C1CC1)C(=O)OCC#N [Example 184, Cyanomethyl(1R,3aS,3bS,10aR,10bS,11S,12aS)-1-[(cyclopropylcarbonyl)oxy]-11-hydroxy-10a,12a-dimethyl-7-pyridazin-4-yl-1,2,3,3a,3b,4,5,7,10,10a,10b,11,12,12a-tetradecahydrocyclopenta[5,6]naphtho[1,2-f]indazole-1-carboxylate]",1.7 nM
4,"C[C@]12Cc3cnn(-c4ccc(F)nc4)c3C=C1CC[C@@H]1[C@@H]2[C@@H](O)C[C@@]2(C)[C@H]1CC[C@]2(OC(=O)[C@H]1CCCO1)C(=O)SCC#N [Example 185, (1R,3aS,3bS,10aR,10bS,11S,12aS)-1-{[(Cyanomethyl)sulfanyl]carbonyl}-7-(6-fluoropyridin-3-yl)-11-hydroxy-10a,12a-dimethyl-1,2,3,3a,3b,4,5,7,10,10a,10b,11,12,12a-tetradecahydrocyclopenta[5,6]naphtho[1,2-f]indazol-1-yl (2R)-tetrahydrofuran-2-carboxylate]",2.7 nM
5,"C[C@]12Cc3cnn(-c4ccc(F)nc4)c3C=C1CC[C@@H]1[C@@H]2[C@@H](O)C[C@@]2(C)[C@H]1CC[C@]2(OC(=O)[C@H]1CCCO1)C(=O)SCCO [Example 186, (1R,3aS,3bS,10aR,10bS,11S,12aS)-7-(6-Fluoropyridin-3-yl)-11-hydroxy-1-{[(2-hydroxyethyl)sulfanyl]carbonyl}-10a,12a-dimethyl-1,2,3,3a,3b,4,5,7,10,10a,10b,11,12,12a-tetradecahydrocyclopenta[5,6]naphtho[1,2-f]indazol-1-yl (2R)-tetrahydrofuran-2-carboxylate]",2.3 nM
6,"C[C@]12Cc3cnn(-c4ccc(F)nc4)c3C=C1CC[C@@H]1[C@@H]2[C@@H](O)C[C@@]2(C)[C@H]1CC[C@]2(OC(=O)[C@H]1CCCO1)C(=O)SCF [Example 187, (1R,3aS,3bS,10aR,10bS,11S,12aS)-1-{[(Fluoromethyl)sulfanyl]carbonyl}-7-(6-fluoropyridin-3-yl)-11-hydroxy-10a,12a-dimethyl-1,2,3,3a,3b,4,5,10,10a,10b,11,12,12a-tetradecahydrocyclopenta[5,6]naphtho[1,2-f]indazol-1-yl (2R)-tetrahydrofuran-2-carboxylate]",2.3 nM
7,"CSC(=O)[C@@]1(OC(=O)[C@H]2CCCO2)CC[C@H]2[C@@H]3CCC4=Cc5c(cnn5-c5ccc(F)nc5)C[C@]4(C)[C@H]3[C@@H](O)C[C@@]21C [Example 188, (1R,3aS,3bS,10aR,10bS,11S,12aS)-7-(6-Fluoropyridin-3-yl)-11-hydroxy-10a,12a-dimethyl-1-[(methylsulfanyl)carbonyl]-1,2,3,3a,3b,4,5,7,10,10a,10b,11,12,12a-tetradecahydrocyclopenta[5,6]naphtho[1,2]-indazol-1-yl (2R)-tetrahydrofuran-2-carboxylate]",1.2 nM
8,"C[C@]12Cc3cnn(-c4cnccn4)c3C=C1CC[C@@H]1[C@@H]2[C@@H](O)C[C@@]2(C)[C@H]1CC[C@]2(OC(=O)C1CC1)C(=O)SCC#N [Example 189, (1R,3aS,3bS,10aR,10bS,11S,12aS)-1-{[(Cyanomethyl)sulfanyl]carbonyl}-11-hydroxy-10a,12a-dimethyl-7-pyrazin-2-yl-1,2,3,3a,3b,4,5,7,10,10a,10b,11,12,12a-tetradecahydrocyclopenta[5,6]naphtho[1,2-f]indazol-1-yl cyclopropanecarboxylate]",5 nM
9,"C[C@]12Cc3cnn(-c4cnccn4)c3C=C1CC[C@@H]1[C@@H]2[C@@H](O)C[C@@]2(C)[C@H]1CC[C@]2(OC(=O)C1CC1)C(=O)SCCO [Example 190, (1R,3aS,3bS,10aR,10bS,11S,12aS)-11-Hydroxy-{[(2-hydroxyethyl)sulfanyl]carbonyl}-10a,12a-dimethyl-7-pyrazin-2-yl-1,2,3,3a,3b,4,5,7,10,10a,10b,11,12,12a-tetradecahydrocyclopenta[5,6]naphtho[1,2-f]indazol-1-yl cyclopropane carboxylate]",3.7 nM
10,"C[C@]12Cc3cnn(-c4ccc(F)cc4)c3C=C1CC[C@H]1[C@@H]3CC[C@](OC(=O)c4ccco4)(C(=O)SCC#N)[C@@]3(C)C[C@H](O)[C@@]12F [Example 193, (1R,3aS,3bS,10aS,10bR,11S,12aS)-1-{[(Cyanomethyl)sulfanyl]carbonyl}-10b-fluoro-7-(4-fluorophenyl)-11-hydroxy-10a,12a-dimethyl-1,2,3,3a,3b,4,5,7,10,10a,11,12,12a-tetradecahydrocyclopenta[5,6]naphtho[1,2-f]indazol-1-yl furan-2-carboxylate]",3.3 nM
11,"C[C@]12Cc3cnn(-c4ccc(F)cc4)c3C=C1CC[C@H]1[C@@H]3CC[C@](OC(=O)c4ccco4)(C(=O)SCF)[C@@]3(C)C[C@H](O)[C@@]12F [Example 194, (1R,3aS,3bS,10aS,10bR,11S,12aS)-1-{[(Fluoromethyl)sulfanyl]carbonyl}-10b-fluoro-7-(4-fluorophenyl)-11-hydroxy-10a,12a-dimethyl-1,2,3,3a,3b,4,5,7,10,10a,10b,11,12,12a-tetradecahydrocyclopenta[5,6]naphtho[1,2-f]indazol-1-yl furan-2-carboxylate]",2.3 nM
12,"C[C@]12Cc3cnn(-c4ccc(F)cc4)c3C=C1CC[C@H]1[C@@H]3CC[C@](OC(=O)C4CC4)(C(=O)SCC#N)[C@@]3(C)C[C@H](O)[C@@]12F [Example 195, (1R,3aS,3bS,10aS,10bR,11S,12aS)-1-{[(Cyanomethyl)sulfanyl]carbonyl}-10b-fluoro-7-(4-fluorophenyl)-11-hydroxy-10a,12a-dimethyl-1,2,3,3a,3b,4,5,7,10,10a,10b,11,12,12a-tetradecahydrocyclopenta[5,6]naphtho[1,2]-indazol-1-yl cyclopropanecarboxylate]",4.7 nM
13,"C[C@]12Cc3cnn(-c4ccc(F)cc4)c3C=C1CC[C@H]1[C@@H]3CC[C@](OC(=O)C4CC4)(C(=O)SCF)[C@@]3(C)C[C@H](O)[C@@]12F [Example 196, (1R,3aS,3bS,10aS,10bR,11S,12aS)-1-{[(Fluoromethyl)sulfanyl]carbonyl}-10b-fluoro-7-(4-fluorophenyl)-11-hydroxy-10a,12a-dimethyl-1,2,3,3a,3b,4,5,7,10,10a,10b,11,12,12a-tetradecahydrocyclopenta[5,6]naphtho[1,2-f]indazol-1-yl cyclopropanecarboxylate]",14 nM
14,"COCC(=O)O[C@]1(C(=O)SCC#N)CC[C@H]2[C@@H]3CCC4=Cc5c(cnn5-c5ccc(F)cc5)C[C@]4(C)[C@@]3(F)[C@@H](O)C[C@@]21C [Example 197, (1R,3aS,3bS,10aS,10bR,11S,12aS)-1-{[(Cyanomethyl)sulfanyl]carbonyl}-10b-fluoro-7-(4-fluorophenyl)-11-hydroxy-10a,12a-dimethyl-1,2,3,3a,3b,4,5,7,10,10a,10b,11,12,12a-tetradecahydrocyclopenta[5,6]naphtho[1,2-f]indazol-1-yl methoxyacetate]",3.3 nM
15,"COCC(=O)O[C@]1(C(=O)SCF)CC[C@H]2[C@@H]3CCC4=Cc5c(cnn5-c5ccc(F)cc5)C[C@]4(C)[C@@]3(F)[C@@H](O)C[C@@]21C [Example 198, (1R,3aS,3bS,10aS,10bR,11S,12aS)-1-{[(Fluoromethyl)sulfanyl]carbonyl}-10b-fluoro-7-(4-fluorophenyl)-11-hydroxy-10a,12a-dimethyl-1,2,3,3a,3b,4,5,7,10,10a,10b,11,12,12a-tetradecahydrocyclopenta[5,6]naphtho[1,2-f]indazol-1-yl methoxyacetate]",2.6 nM
